Results as given in ChEMBL document CHEMBL4610117 (J Med Chem, 2020).
Activity calls are given as the source filed them. The calls are words filed in the database; no cut-off is given here.

Tests used:
[1] = target: T1, Cyclin-G-associated kinase (Homo sapiens, UniProt O14976); experiment: Binding affinity to wild-type human partial length GAK (G13 to Y338 residues) expressed in bacterial expression system by Kinomescan method
T1 sequence (O14976 whole entry): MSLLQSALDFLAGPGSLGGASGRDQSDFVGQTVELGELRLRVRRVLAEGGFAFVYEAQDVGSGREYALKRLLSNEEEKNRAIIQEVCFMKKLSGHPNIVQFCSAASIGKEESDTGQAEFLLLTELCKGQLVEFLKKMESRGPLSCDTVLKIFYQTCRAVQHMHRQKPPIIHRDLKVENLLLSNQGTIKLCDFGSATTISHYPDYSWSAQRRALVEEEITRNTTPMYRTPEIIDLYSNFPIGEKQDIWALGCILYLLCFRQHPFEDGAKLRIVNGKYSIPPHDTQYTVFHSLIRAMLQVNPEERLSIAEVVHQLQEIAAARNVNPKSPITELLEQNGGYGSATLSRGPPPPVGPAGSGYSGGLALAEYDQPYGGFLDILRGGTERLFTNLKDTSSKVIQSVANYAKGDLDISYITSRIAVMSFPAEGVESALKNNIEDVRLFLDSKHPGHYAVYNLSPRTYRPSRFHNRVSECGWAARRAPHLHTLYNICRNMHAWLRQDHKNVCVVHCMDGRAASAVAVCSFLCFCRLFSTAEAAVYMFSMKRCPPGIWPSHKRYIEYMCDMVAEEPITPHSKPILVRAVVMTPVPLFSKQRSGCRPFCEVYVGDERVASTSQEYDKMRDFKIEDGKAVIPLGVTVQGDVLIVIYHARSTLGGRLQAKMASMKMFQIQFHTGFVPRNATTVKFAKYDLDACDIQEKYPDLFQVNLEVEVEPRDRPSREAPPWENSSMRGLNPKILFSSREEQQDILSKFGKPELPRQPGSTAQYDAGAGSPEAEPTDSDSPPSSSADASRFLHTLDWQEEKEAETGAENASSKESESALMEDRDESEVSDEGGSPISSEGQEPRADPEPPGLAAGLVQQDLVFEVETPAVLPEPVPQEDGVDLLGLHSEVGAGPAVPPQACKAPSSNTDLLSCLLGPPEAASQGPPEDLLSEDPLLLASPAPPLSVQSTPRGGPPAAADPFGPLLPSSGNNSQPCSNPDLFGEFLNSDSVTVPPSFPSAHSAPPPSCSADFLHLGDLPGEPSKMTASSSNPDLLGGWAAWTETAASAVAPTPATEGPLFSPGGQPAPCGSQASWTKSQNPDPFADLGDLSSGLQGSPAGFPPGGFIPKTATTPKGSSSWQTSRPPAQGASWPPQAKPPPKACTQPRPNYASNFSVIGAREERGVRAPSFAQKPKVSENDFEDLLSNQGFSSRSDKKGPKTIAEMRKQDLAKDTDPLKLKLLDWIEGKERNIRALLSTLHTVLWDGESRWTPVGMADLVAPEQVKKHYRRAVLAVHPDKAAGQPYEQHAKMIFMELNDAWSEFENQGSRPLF

[2] = target: Serine/threonine-protein kinase ATR (Homo sapiens, UniProt Q13535); experiment: In vivo inhibition of ATR in human SUDHL8 cells harboring ATM K1964E mutant xenografted CB-17 mouse assessed as reduction in ATR phosphorylation at 50 mg/kg, po bid dosed every 3 days followed by 4 days interval; format: functional, organism-based
Serine/threonine-protein kinase ATR, sequence (Q13535 whole entry, looked up): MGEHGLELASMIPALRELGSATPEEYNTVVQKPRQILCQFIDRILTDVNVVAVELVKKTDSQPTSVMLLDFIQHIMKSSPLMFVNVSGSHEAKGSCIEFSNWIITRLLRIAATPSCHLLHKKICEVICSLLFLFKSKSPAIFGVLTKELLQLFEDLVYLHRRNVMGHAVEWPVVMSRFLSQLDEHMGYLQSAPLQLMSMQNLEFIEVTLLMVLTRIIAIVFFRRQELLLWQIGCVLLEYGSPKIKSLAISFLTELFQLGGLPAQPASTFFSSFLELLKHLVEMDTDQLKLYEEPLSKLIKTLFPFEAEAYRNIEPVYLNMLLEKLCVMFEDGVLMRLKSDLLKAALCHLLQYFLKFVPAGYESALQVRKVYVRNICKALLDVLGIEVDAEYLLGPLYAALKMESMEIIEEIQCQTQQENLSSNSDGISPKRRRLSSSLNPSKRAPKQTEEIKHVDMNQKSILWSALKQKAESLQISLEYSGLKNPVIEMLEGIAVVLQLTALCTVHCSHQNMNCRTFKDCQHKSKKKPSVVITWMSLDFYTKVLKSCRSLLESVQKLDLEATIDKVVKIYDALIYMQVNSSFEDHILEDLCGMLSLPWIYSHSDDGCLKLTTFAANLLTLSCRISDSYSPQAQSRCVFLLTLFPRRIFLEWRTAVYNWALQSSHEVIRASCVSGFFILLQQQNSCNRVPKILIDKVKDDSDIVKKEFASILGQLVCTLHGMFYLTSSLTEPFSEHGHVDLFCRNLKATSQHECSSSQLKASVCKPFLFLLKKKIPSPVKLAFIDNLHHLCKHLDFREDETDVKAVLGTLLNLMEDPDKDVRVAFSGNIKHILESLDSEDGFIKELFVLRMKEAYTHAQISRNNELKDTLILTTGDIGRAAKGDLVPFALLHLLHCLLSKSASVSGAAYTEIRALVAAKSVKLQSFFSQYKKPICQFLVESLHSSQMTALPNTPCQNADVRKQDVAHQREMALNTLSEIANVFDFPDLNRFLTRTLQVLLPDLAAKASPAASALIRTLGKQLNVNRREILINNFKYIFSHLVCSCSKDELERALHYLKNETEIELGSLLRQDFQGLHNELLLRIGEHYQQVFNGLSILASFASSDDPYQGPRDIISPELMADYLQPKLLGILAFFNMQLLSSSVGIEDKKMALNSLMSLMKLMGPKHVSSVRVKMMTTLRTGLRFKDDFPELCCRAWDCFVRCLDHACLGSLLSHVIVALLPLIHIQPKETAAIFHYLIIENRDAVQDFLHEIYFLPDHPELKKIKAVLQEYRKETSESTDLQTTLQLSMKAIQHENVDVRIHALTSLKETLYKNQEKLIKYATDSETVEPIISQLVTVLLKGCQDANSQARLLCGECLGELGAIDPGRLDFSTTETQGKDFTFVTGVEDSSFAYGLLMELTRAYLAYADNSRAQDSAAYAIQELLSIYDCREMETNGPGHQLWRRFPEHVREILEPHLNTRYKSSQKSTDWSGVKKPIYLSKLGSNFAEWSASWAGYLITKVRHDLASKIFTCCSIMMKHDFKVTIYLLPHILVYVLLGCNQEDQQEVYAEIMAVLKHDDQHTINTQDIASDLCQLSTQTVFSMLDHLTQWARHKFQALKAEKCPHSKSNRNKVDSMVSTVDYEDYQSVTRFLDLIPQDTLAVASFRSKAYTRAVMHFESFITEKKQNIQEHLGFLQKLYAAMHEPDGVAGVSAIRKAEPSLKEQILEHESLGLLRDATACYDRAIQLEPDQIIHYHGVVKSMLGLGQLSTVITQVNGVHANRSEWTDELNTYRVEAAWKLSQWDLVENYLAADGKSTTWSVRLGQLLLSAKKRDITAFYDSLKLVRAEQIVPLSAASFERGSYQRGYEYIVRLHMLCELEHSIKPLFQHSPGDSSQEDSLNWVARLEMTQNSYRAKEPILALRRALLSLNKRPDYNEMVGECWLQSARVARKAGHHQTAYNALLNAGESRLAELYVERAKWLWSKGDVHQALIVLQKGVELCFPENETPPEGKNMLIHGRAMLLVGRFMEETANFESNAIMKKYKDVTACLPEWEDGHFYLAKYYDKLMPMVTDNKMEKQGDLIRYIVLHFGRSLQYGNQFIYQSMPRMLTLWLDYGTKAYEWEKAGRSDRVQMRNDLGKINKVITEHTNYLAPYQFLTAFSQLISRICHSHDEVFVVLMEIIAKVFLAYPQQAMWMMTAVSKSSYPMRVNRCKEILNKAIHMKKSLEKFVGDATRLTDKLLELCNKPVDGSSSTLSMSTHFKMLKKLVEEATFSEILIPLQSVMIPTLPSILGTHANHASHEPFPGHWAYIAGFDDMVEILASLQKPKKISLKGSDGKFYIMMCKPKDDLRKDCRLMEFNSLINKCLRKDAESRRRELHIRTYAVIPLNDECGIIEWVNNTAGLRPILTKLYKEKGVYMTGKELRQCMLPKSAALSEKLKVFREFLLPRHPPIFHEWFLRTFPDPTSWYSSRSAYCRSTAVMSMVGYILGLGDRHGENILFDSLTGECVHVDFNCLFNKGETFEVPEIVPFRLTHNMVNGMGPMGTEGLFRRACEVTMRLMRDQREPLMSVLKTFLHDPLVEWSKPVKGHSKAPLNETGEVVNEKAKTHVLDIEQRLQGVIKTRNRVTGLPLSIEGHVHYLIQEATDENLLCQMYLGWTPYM

[3] = Toxicity in NOD/SCID mouse xenografted with human CR5038 cells assessed as body weight loss at 20 mg/kg, po qd dosed every 2 days followed by 5 days interval measured on day 11 to 14 and 28 to 31 in presence of carboplatin relative to control; format: organism-based; conditions: in vivo
[4] = Toxicity in NOD/SCID mouse xenografted with human CR5038 cells assessed as body weight loss at 20 mg/kg, po qd dosed every 2 days followed by 5 days for 2 weeks and subsequent dosing at 10 mg/kg interval measured on day 11 to 14 and 28 to 31 in presence of carboplatin relative to control; format: organism-based; conditions: in vivo

C[C@@H]1COCCN1c1cc(-c2ccnn2C)c2ccnc(-c3ccn[nH]3)c2n1 [ELIMUSERTIB]
Kd [1]: 580 nM | inhibition [2]: Active | Activity [3]: 11 to 15% | Activity [4]: < 10%
